# Test results from patent US20260015358A1, “BICYCLIC DERIVATIVES, COMPOSITIONS AND USES THEREOF” (Danatlas Pharmaceuticals Co., Ltd., priority 2023, published 2026).
# Experiments:
# [1] = target: T1, WRN [UniPro: Q14191 (WRN_HUMAN), N500-C946] (Homo sapiens (Human), UniProt Q14191); assay: WRN unwinding assay (FORKF DNA, fluorescence); format: biochemical; details: Table 14
# [2] = target: T1, WRN [UniPro: Q14191 (WRN_HUMAN), N500-C946]; assay: WRN ATPase assay (ADP-Glo); format: biochemical; details: WRN enzymatic activity assay
# T1 sequence (Q14191 500-946): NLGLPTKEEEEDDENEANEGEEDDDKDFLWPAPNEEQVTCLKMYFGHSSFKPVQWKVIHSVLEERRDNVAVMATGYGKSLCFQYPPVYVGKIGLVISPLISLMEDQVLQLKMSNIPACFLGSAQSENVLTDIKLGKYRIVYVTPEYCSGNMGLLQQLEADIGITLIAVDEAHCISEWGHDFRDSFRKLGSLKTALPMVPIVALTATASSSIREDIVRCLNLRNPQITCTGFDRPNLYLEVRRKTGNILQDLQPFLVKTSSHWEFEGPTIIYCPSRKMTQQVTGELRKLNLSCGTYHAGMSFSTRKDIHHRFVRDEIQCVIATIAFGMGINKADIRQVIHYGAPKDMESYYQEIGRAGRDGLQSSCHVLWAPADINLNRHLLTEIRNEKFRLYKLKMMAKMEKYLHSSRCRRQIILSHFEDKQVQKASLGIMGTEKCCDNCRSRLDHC
Compound,IC50 [1],IC50 [2]
"CCc1c(N2CCN(C(=O)CNS(=O)(=O)c3ccccc3)CC2)c(=O)n2nc(C3=CCOCC3)nc2n1CC(=O)Nc1ccc(C(F)(F)F)cc1Cl [Example 171, N-(2-Chloro-4-(trifluoromethyl)phenyl)-2-(2-(3,6-dihydro-2H-pyran-4-yl)-5-ethyl-7-oxo-6-(4-(2-(phenylsulfonamido)acetyl)piperazin-1-yl)-[1,2,4]triazolo[1,5-a]pyrimidin-4(7H)-yl)acetamide]",0.1 to 1 µM,0.1 to 1 µM
"CCc1c(N2CCN(C(=O)CNC(=O)c3ccc(C(F)(F)F)cc3)CC2)c(=O)n2nc(C3=CCOCC3)nc2n1CC(=O)Nc1ccc(C(F)(F)F)cc1Cl [Example 176, N-(2-(4-(4-(2-((2-Chloro-4-(trifluoromethyl)phenyl)amino)-2-oxoethyl)-2-(3,6-dihydro-2H-pyran-4-yl)-5-ethyl-7-oxo-4,7-dihydro-[1,2,4]triazolo[1,5-a]Pyrimidin-6-yl)piperazin-1-yl)-2-oxoethyl)-4-(trifluoromethyl)benzamide]",0.1 to 1 µM,0.1 to 1 µM
"CCc1c(N2CCN(C(=O)CNC(=O)Cc3ccc(F)cc3)CC2)c(=O)n2nc(C3=CCOCC3)nc2n1CC(=O)Nc1ccc(C(F)(F)F)cc1Cl [Example 177, N-(2-Chloro-4-(trifluoromethyl)phenyl)-2-(2-(3,6-dihydro-2H-pyran-4-yl)-5-ethyl-6-(4-((2-(4-fluorophenyl)acetyl)glycyl)piperazin-1-yl)-7-oxo-[1,2,4]triazolo[1,5-a]pyrimidin-4(7H)-yl)acetamide]",< 0.1 µM,< 0.1 µM
"CCc1c(N2CCN(C(=O)CNC(=O)Nc3cc(F)cc(F)c3)CC2)c(=O)n2nc(C3=CCOCC3)nc2n1CC(=O)Nc1ccc(C(F)(F)F)cc1Cl [Example 179, N-(2-Chloro-4-(trifluoromethyl)phenyl)-2-(6-(4-(((3,5-difluorophenyl)carbamoyl)glycyl)piperazin-1-yl)-2-(3,6-dihydro-2H-pyran-4-yl)-5-ethyl-7-oxo-[1,2,4]triazolo[1,5-a]pyrimidin-4(7H)-yl)acetamide]",< 0.1 µM,< 0.1 µM
"CCc1c(N2CCN(C(=O)CNC(=O)Nc3ccccc3F)CC2)c(=O)n2nc(C3=CCOCC3)nc2n1CC(=O)Nc1ccc(C(F)(F)F)cc1Cl [Example 180, N-(2-Chloro-4-(trifluoromethyl)phenyl)-2-(2-(3,6-dihydro-2H-pyran-4-yl)-5-ethyl-6-(4-(((2-fluorophenyl)carbamoyl)glycyl)piperazin-1-yl)-7-oxo-[1,2,4]triazolo[1,5-a]pyrimidin-4(7H)-yl)acetamide]",< 0.1 µM,< 0.1 µM
"CCc1c(N2CCN(C(=O)CNC(=O)Nc3ccccc3Cl)CC2)c(=O)n2nc(C3=CCOCC3)nc2n1CC(=O)Nc1ccc(C(F)(F)F)cc1Cl [Example 181, N-(2-Chloro-4-(trifluoromethyl)phenyl)-2-(6-(4-(((2-chlorophenyl)carbamoyl)glycyl)piperazin-1-yl)-2-(3,6-dihydro-2H-pyran-4-yl)-5-ethyl-7-oxo-[1,2,4]triazolo[1,5-a]pyrimidin-4(7H)-yl)acetamide]",< 0.1 µM,< 0.1 µM
"CCc1c(N2CCN(C(=O)CNC(=O)N3CCc4ccccc43)CC2)c(=O)n2nc(C3=CCOCC3)nc2n1CC(=O)Nc1ccc(C(F)(F)F)cc1Cl [Example 182, N-(2-(4-(4-(2-((2-Chloro-4-(trifluoromethyl)phenyl)amino)-2-oxoethyl)-2-(3,6-dihydro-2H-pyran-4-yl)-5-ethyl-7-oxo-4,7-dihydro-[1,2,4]triazolo[1,5-a]pyrimidin-6-yl)piperazin-1-yl)-2-oxoethyl) indoline-1-carboxamide]",< 0.1 µM,< 0.1 µM
"CCc1c(N2CCN(C(=O)CNC(=O)NCc3ccccc3)CC2)c(=O)n2nc(C3=CCOCC3)nc2n1CC(=O)Nc1ccc(C(F)(F)F)cc1Cl [Example 183, 2-(6-(4-((Benzylcarbamoyl)glycyl)piperazin-1-yl)-2-(3,6-dihydro-2H-pyran-4-yl)-5-ethyl-7-oxo-[1,2,4]triazolo[1,5-a]pyrimidin-4(7H)-yl)-N-(2-chloro-4-(trifluoromethyl)phenyl)acetamide]",< 0.1 µM,< 0.1 µM
"CCc1c(N2CCN(C(=O)CNC(=O)N3Cc4ccccc4C3)CC2)c(=O)n2nc(C3=CCOCC3)nc2n1CC(=O)Nc1ccc(C(F)(F)F)cc1Cl [Example 185, N-(2-(4-(4-(2-((2-Chloro-4-(trifluoromethyl)phenyl)amino)-2-oxoethyl)-2-(3,6-dihydro-2H-pyran-4-yl)-5-ethyl-7-oxo-4,7-dihydro-[1,2,4]triazolo[1,5-a]pyrimidin-6-yl)piperazin-1-yl)-2-oxoethyl)isoindoline-2-carboxamide]",< 0.1 µM,< 0.1 µM
"CCc1c(N2CCN(C(=O)CNC(=O)Nc3cc(F)ccc3F)CC2)c(=O)n2nc(C3=CCOCC3)nc2n1CC(=O)Nc1ccc(C(F)(F)F)cc1Cl [Example 186, N-(2-Chloro-4-(trifluoromethyl)phenyl)-2-(6-(4-(((2,5-difluorophenyl)carbamoyl)glycyl)piperazin-1-yl)-2-(3,6-dihydro-2H-pyran-4-yl)-5-ethyl-7-oxo-[1,2,4]triazolo[1,5-a]pyrimidin-4(7H)-yl)acetamide]",< 0.1 µM,< 0.1 µM
"CCc1c(N2CCN(C(=O)CNC(=O)Nc3ccccc3C#N)CC2)c(=O)n2nc(C3=CCOCC3)nc2n1CC(=O)Nc1ccc(C(F)(F)F)cc1Cl [Example 187, N-(2-Chloro-4-(trifluoromethyl)phenyl)-2-(6-(4-(((2-cyanophenyl)carbamoyl)glycyl)piperazin-1-yl)-2-(3,6-dihydro-2H-pyran-4-yl)-5-ethyl-7-oxo-[1,2,4]triazolo[1,5-a]pyrimidin-4(7H)-yl)acetamide]",< 0.1 µM,< 0.1 µM

# Continued, values first:
IC50 [1],IC50 [2],Compound
< 0.1 µM,< 0.1 µM,"CCOC(=O)NCC(=O)N1CCN(c2c(CC)n(CC(=O)Nc3ccc(C(F)(F)F)cc3Cl)c3nc(C4=CCOCC4)nn3c2=O)CC1 [Example 167, Ethyl (2-(4-(4-(2-((2-chloro-4-(trifluoromethyl)phenyl)amino)-2-oxoethyl)-2-(3,6-dihydro-2H-pyran-4-yl)-5-ethyl-7-oxo-4,7-dihydro-[1,2,4]triazolo[1,5-a]pyrimidin-6-yl)piperazin-1-yl)-2-oxoethyl)carbamate]"
< 0.1 µM,< 0.1 µM,"CCc1c(N2CCN(C(=O)CNC(C)=O)CC2)c(=O)n2nc(C3=CCOCC3)nc2n1CC(=O)Nc1ccc(C(F)(F)F)cc1Cl [Example 168, 2-(6-(4-(Acetylglycyl)piperazin-1-yl)-2-(3,6-dihydro-2H-pyran-4-yl)-5-ethyl-7-oxo-[1,2,4]triazolo[1,5-a]pyrimidin-4(7H)-yl)-N-(2-chloro-4-(trifluoromethyl)phenyl)acetamide]"
< 0.1 µM,0.1 to 1 µM,"CCc1c(N2CCN(C(=O)CNC(=O)C(C)(C)C)CC2)c(=O)n2nc(C3=CCOCC3)nc2n1CC(=O)Nc1ccc(C(F)(F)F)cc1Cl [Example 169, N-(2-(4-(4-(2-((2-Chloro-4-(trifluoromethyl)phenyl)amino)-2-oxoethyl)-2-(3,6-dihydro-2H-pyran-4-yl)-5-ethyl-7-oxo-4,7-dihydro-[1,2,4]triazolo[1,5-a]pyrimidin-6-yl)piperazin-1-yl)-2-oxoethyl)pivalamide]"
0.1 to 1 µM,0.1 to 1 µM,"CCc1c(N2CCN(C(=O)CNS(C)(=O)=O)CC2)c(=O)n2nc(C3=CCOCC3)nc2n1CC(=O)Nc1ccc(C(F)(F)F)cc1Cl [Example 170, N-(2-Chloro-4-(trifluoromethyl)phenyl)-2-(2-(3,6-dihydro-2H-pyran-4-yl)-5-ethyl-6-(4-((methylsulfonyl)glycyl)piperazin-1-yl)-7-oxo-[1,2,4]triazolo[1,5-a]pyrimidin-4(7H)-yl)acetamide]"
0.1 to 1 µM,0.1 to 1 µM,"CCc1c(N2CCN(C(=O)CNC(=O)N(C)C)CC2)c(=O)n2nc(C3=CCOCC3)nc2n1CC(=O)Nc1ccc(C(F)(F)F)cc1Cl [Example 173, N-(2-Chloro-4-(trifluoromethyl)phenyl)-2-(2-(3,6-dihydro-2H-pyran-4-yl)-6-(4-((dimethylcarbamoyl)glycyl)piperazin-1-yl)-5-ethyl-7-oxo-[1,2,4]triazolo[1,5-a]pyrimidin-4(7H)-yl)acetamide]"
< 0.1 µM,< 0.1 µM,"CCc1c(N2CCN(C(=O)CNC(=O)COC)CC2)c(=O)n2nc(C3=CCOCC3)nc2n1CC(=O)Nc1ccc(C(F)(F)F)cc1Cl [Example 174, N-(2-Chloro-4-(trifluoromethyl)phenyl)-2-(2-(3,6-dihydro-2H-pyran-4-yl)-5-ethyl-6-(4-((2-methoxyacetyl)glycyl)piperazin-1-yl)-7-oxo-[1,2,4]triazolo[1,5-a]pyrimidin-4(7H)-yl)acetamide]"
< 0.1 µM,< 0.1 µM,"CCc1c(N2CCN(C(=O)CNC(=O)Nc3ccccc3)CC2)c(=O)n2nc(C3=CCOCC3)nc2n1CC(=O)Nc1ccc(C(F)(F)F)cc1Cl [Example 178, N-(2-Chloro-4-(trifluoromethyl)phenyl)-2-(2-(3,6-dihydro-2H-pyran-4-yl)-5-ethyl-7-oxo-6-(4-((phenylcarbamoyl)glycyl)piperazin-1-yl)-[1,2,4]triazolo[1,5-a]pyrimidin-4 (7H)-yl)acetamide]"
< 0.1 µM,< 0.1 µM,"CCc1c(N2CCN(C(=O)CNC(=O)NC3CC3)CC2)c(=O)n2nc(C3=CCOCC3)nc2n1CC(=O)Nc1ccc(C(F)(F)F)cc1Cl [Example 184, N-(2-Chloro-4-(trifluoromethyl)phenyl)-2-(6-(4-((cyclopropylcarbamoyl)glycyl)piperazin-1-yl)-2-(3,6-dihydro-2H-pyran-4-yl)-5-ethyl-7-oxo-[1,2,4]triazolo[1,5-a]pyrimidin-4(7H)-yl)acetamide]"
< 0.1 µM,< 0.1 µM,"CCc1c(N2CCN(C(=O)CNC(=O)Nc3nccs3)CC2)c(=O)n2nc(C3=CCOCC3)nc2n1CC(=O)Nc1ccc(C(F)(F)F)cc1Cl [Example 188, N-(2-Chloro-4-(trifluoromethyl)phenyl)-2-(2-(3,6-dihydro-2H-pyran-4-yl)-5-ethyl-7-oxo-6-(4-((thiazol-2-ylcarbamoyl)glycyl)piperazin-1-yl)-[1,2,4]triazolo[1,5-a]pyrimidin-4(7H)-yl)acetamide]"
